Active and inactive are the calls of the source. The rule behind the calls is not given here.
Legend:
HCT-116 [1] = experiment: cells; conditions: Homo sapiens, HCT-116, 72 h
Description: Antiproliferative activity against human HCT-116 cells assessed as inhibition of cell growth measured after 72 hrs by CCK-8 method

HCT-116 [2] = experiment: Upregulation of slug expression in human HCT-116 cells measured after 48 hrs by Western blot analysis; assay type: functional, cell-based

O=C(Nc1ccc(Cl)c(Cl)c1)C1CCCN(C(=O)c2cc(C(F)(F)F)cc(C(F)(F)F)c2)C1 (centres undefined) was tested, and the IC50 (HCT-116 [1]) was 15.7 µM.

Work on O=C(Nc1ccc(Cl)cc1)C1CCCN(C(=O)c2cccc(-c3ccco3)c2)C1 (centres undefined) yielded an IC50 (HCT-116 [1]) of 76.5 µM.

In the case of O=C(NCc1ccc(C(F)(F)F)cc1)C1CCCN(C(=O)c2cc(C(F)(F)F)cc(C(F)(F)F)c2)C1 (centres undefined), the IC50 (HCT-116 [1]) is reported as 25.1 µM.

For CC(C)(C)c1ccc(CNC(=O)C2CCCN(Cc3cccc(C#N)c3)C2)cc1 (centres undefined), the IC50 (HCT-116 [1]) was 40 µM.

For N#Cc1cccc(CN2CCCC(C(=O)NCc3ccc4ccccc4c3)C2)c1 (centres undefined), the IC50 (HCT-116 [1]) was 48.3 µM.

N#Cc1cccc(CN2CCCC(C(=O)NCc3ccc(C(F)(F)F)cc3)C2)c1 (centres undefined) gave an IC50 (HCT-116 [1]) of 20.4 µM.

With O=C(Nc1cccc(Cl)c1)C1CCCN(C(=O)c2cc(C(F)(F)F)cc(C(F)(F)F)c2)C1 (centres undefined) the IC50 (HCT-116 [1]) was 30.5 µM.

Molecule O=C(NCc1ccccc1)C1=CCCN(Cc2ccccc2)C1 has an IC50 (HCT-116 [1]) of 55.4 µM.

In the case of N#Cc1cccc(CN2CCC=C(C(=O)Nc3ccc(Cl)cc3)C2)c1, the IC50 (HCT-116 [1]) is reported as 2.5 µM.

With N#Cc1cccc(CN2CCCC(C(=O)NCc3ccc(Cl)cc3)C2)c1 (centres undefined) the IC50 (HCT-116 [1]) was 22.1 µM.

In the case of O=C(NCc1ccc2c(c1)OCO2)C1CCCN(C(=O)c2cc(C(F)(F)F)cc(C(F)(F)F)c2)C1 (centres undefined), the IC50 (HCT-116 [1]) is reported as 95.3 µM.

Work on O=C(Nc1ccc(Cl)cc1)C1=CCCN(C(=O)c2cc(C(F)(F)F)cc(C(F)(F)F)c2)C1 yielded an IC50 (HCT-116 [1]) of 40.3 µM.

O=C(NCc1ccc(C(F)(F)F)cc1)C1=CCCN(Cc2cccc(F)c2)C1 showed an IC50 (HCT-116 [1]) of 20.1 µM.

O=C(NCc1ccc(C(F)(F)F)cc1)C1=CCCN(Cc2ccccc2)C1 was tested, and the Activity (HCT-116 [2]) was “Active” and the IC50 (HCT-116 [1]) was 50.4 µM.

N#Cc1cccc(CN2CCCC(C(=O)NCc3ccc(Cl)c(Cl)c3)C2)c1 (centres undefined) gave an IC50 (HCT-116 [1]) of 25.3 µM.

In the case of O=C(Nc1ccncc1)C1CCCN(C(=O)c2cc(C(F)(F)F)cc(C(F)(F)F)c2)C1 (centres undefined), the IC50 (HCT-116 [1]) is reported as 59.7 µM.

O=C(Nc1ccc(C(F)(F)F)cc1)C1CCCN(C(=O)c2cc(C(F)(F)F)cc(C(F)(F)F)c2)C1 (centres undefined) was tested, and the IC50 (HCT-116 [1]) was 30 µM.

In the case of O=C(NCc1ccc(C(F)(F)F)cc1)C1=CCCN(C(=O)c2cc(C(F)(F)F)cc(C(F)(F)F)c2)C1, the IC50 (HCT-116 [1]) is reported as 20.5 µM.

Reference: ChEMBL document CHEMBL5528050, “Discovery of a Novel Series of Homo sapiens Caseinolytic Protease P Agonists for Colorectal Adenocarcinoma Treatment via ATF3-Dependent Integrated Stress Response” (J Med Chem, 2024)
